Experimental data: patent publication US9616245B2, “Method of treating cells with drug and radiation according to proton density” (priority 2009, dated 2017)
Read-outs that look alike come from different tables or passages of the source.

What was measured:
[1] = test system: peripheral blood monocytes and alveolar macrophages; details: cited from earlier work
[2] = molecular target: inducible nitric oxide synthase (iNOS) (Homo sapiens, UniProt P35228); details: cited from earlier work
[3] = test system: head and neck tumor cell lines; details: Clin. Cancer Res. 2005; 11(19); cited from earlier work
cycloxygenase = details: cited from earlier work
protein kinase C (PKC) = details: cited from earlier work
cancer cells = details: cited from earlier work
IkB kinase = details: cited from earlier work
lipoxygenase = details: cited from earlier work

Sequence of inducible nitric oxide synthase (iNOS) (P35228 whole entry, species assumed): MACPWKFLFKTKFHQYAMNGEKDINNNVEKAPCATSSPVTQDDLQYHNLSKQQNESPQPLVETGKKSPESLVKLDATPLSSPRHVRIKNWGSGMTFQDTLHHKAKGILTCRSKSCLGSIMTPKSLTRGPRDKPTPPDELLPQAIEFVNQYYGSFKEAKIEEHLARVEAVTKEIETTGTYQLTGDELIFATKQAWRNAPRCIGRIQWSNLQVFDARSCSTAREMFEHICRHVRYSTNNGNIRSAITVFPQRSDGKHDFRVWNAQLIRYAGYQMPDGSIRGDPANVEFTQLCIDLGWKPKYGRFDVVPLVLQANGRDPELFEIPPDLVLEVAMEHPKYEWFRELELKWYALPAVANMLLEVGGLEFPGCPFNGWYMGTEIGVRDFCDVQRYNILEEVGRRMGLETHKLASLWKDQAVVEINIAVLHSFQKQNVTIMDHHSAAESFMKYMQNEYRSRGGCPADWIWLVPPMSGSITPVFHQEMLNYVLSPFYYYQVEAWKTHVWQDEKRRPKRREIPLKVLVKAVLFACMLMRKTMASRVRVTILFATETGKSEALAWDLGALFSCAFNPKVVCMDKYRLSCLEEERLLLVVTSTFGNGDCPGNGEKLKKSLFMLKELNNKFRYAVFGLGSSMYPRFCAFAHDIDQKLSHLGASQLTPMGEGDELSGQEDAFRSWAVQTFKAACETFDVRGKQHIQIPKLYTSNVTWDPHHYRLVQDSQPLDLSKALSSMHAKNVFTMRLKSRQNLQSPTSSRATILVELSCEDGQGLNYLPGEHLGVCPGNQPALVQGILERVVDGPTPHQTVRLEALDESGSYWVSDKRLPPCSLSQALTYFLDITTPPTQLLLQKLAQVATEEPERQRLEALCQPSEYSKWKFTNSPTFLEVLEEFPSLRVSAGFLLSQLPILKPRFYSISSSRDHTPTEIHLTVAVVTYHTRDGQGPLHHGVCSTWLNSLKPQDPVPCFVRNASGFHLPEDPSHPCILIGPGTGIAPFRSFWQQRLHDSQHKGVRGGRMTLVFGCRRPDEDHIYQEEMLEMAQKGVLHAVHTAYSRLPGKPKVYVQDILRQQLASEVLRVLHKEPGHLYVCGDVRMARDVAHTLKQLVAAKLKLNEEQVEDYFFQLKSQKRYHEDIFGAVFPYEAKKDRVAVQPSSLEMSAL
Method for recurrent Meduloblastoma: They also had high-grade fever. The chemotherapy was stopped for a week and given a blood transfusion and stabilized the patient. In the second leg the patient was then put on FORN mediated metronomic chemotherapy upon the request of their parent.
During the FORN break period, as advised by the patient's treating oncologist, the patient continued the chemotherapy without FORN. Thus during the third leg the patient took chemotherapy without FORN. […] Another transfusion of blood was conducted.
During the third leg of the trial, the cytotoxic drugs were continued to be administered, without the use of FORN.

Compound: COc1cc(/C=C/C(=O)CC(=O)/C=C/c2ccc(O)c(OC)c2)ccc1O [Curcumin]
- production of inflammatory cytokines [1]: inhibit production
- inhibition of iNOS [2]: inhibits
- growth of tumor cell lines [3]: suppresses growth
- inhibition of cycloxygenase (cycloxygenase): inhibits
- inhibition of phorbol ester induced PKC activity (protein kinase C (PKC)): inhibits
- apoptosis (programmed cell death) (cancer cells): induce apoptosis
- inhibition of IkB kinase (IkB kinase): potent inhibitor
- inhibition of lipoxygenase (lipoxygenase): inhibits

Compound: O=P1(N(CCCl)CCCl)NCCCO1 (stereo not shown) [Cyclophosphamide]
- bone marrow / blood counts (recurrent Meduloblastoma; first leg, without FORN, metronomic mode with three anti angiogenic drugs, after 2 weeks): severe bone marrow depression

Compound: COc1cc([C@@H]2c3cc4c(cc3[C@@H](O[C@@H]3O[C@@H]5CO[C@@H](C)O[C@H]5[C@H](O)[C@H]3O)[C@H]3COC(=O)[C@H]23)OCO4)cc(OC)c1O [VP 16, Etoposide]
- bone marrow / blood counts (recurrent Meduloblastoma; human, in vivo): severe bone marrow depression
